{"source": "patent US11930814B2", "about": "“Pesticidal mixtures comprising cyanosulfoximine compounds” (BASF SE, priority 2007, dated 2024)", "assay_type_in_all_cases": "in vivo", "key": {"[1]": {"tested_on": "vetch aphid (Megoura viciae)", "assay": "Test B.1: control of vetch aphid on broad bean leaf disks in microtiter plates (contact or systemic)", "details": "5 days", "method": "For evaluating control of vetch aphid (Megoura viciae) through contact or systemic means the test unit consisted of microtiter plates containing broad bean leaf disks. The compounds or mixtures were formulated using a solution containing 75 wt % water and 25 wt % DMSO. Different concentrations of formulated compounds or mixtures were sprayed onto the leaf disks at 2.5 μl, using a custom built micro atomizer, at two replications.\n(§1) For experimental mixtures in these tests identical volumes of both mixing partners at the desired concentrations respectively, were mixed together.\nAfter application, the leaf disks were air-dried and 5-8 adult aphids placed on the leaf disks inside the microtiter plate wells. The aphids were then allowed to suck on the treated leaf disks and incubated at 23±1° C., 50±5% RH (relative humidity) for 5 days. Aphid mortality and fecundity was then visually assessed."}, "[2]": {"tested_on": "green peach aphid (Myzus persicae)", "assay": "Test B.2: control of green peach aphid through systemic means, artificial diet under membrane in microtiter plates", "details": "3 days", "source_text": "For evaluating control of green peach aphid (Myzus persicae) through systemic means the test unit consisted of microtiter plates containing liquid artificial diet under an artificial membrane.\nThe compounds or mixtures were formulated using a solution containing 75 wt % water and 25 wt % DMSO. Different concentrations of formulated compounds or mixtures were pipetted into the aphid diet, using a custom built pipetter, at two replications. For experimental mixtures in these tests identical volumes of both mixing partners at the desired concentrations respectively, were mixed together.\nAfter application, 5-8 adult aphids were placed on the artificial membrane inside the microtiter plate wells. The aphids were then allowed to suck on the treated aphid diet and incubated at 23±1° C., 50±5% RH for 3 days. Aphid mortality and fecundity was then visually assessed."}, "[3]": {"tested_on": "Mediterranean fruitfly (Ceratitis capitata)", "assay": "Test B.4: control of Mediterranean fruitfly, insect diet with eggs in microtiter plates", "details": "5 days", "method": "For evaluating control of Mediterranean fruitfly (Ceratitis capitata) the test unit consisted of well-microtiter plates containing an insect diet and 50-80 C. capitata eggs. The compounds or mixtures were formulated using a solution containing 75 wt % water and 25 wt % DMSO. Different concentrations of formulated compounds or mixtures were sprayed onto the insect diet at 5 μl, using a custom built micro atomizer, at two replications.\nas §1\nAfter application, microtiter plates were incubated at 28±1° C., 80±5% RH for 5 days. Egg and larval mortality was then visually assessed."}, "[4]": {"tested_on": "boll weevil (Anthonomus grandis)", "assay": "Test B.3: control of boll weevil, insect diet with eggs in microtiter plates", "details": "5 days", "method": "For evaluating control of boll weevil (Anthonomus grandis) the test unit consisted of well-microtiter plates containing an insect diet and 20-30 A. grandis eggs.\nThe compounds or mixtures were formulated using a solution containing 75 wt % water and 25 wt % DMSO. Different concentrations of formulated compounds or mixtures were sprayed onto the insect diet at 20 μl, using a custom built micro atomizer, at two replications.\nas §1\nAfter application, microtiter plates were incubated at 23±1° C., 50±5% RH for 5 days. Egg and larval mortality was then visually assessed."}, "[5]": {"details": "2 + 0 ppm (compound II + compound I), compound II alone"}, "[6]": {"details": "0.08 + 0 ppm (compound II + compound I), compound II alone"}, "[7]": {"details": "4 + 0 ppm (compound II + compound I), compound II alone"}, "[8]": {"details": "0 + 20 ppm (compound II + compound I), compound I alone"}, "[9]": {"details": "0 + 0.8 ppm (compound II + compound I), compound I alone"}, "[10]": {"details": "200 + 0 ppm (compound II + compound I), compound II alone"}, "[11]": {"details": "0.4 + 0 ppm (compound II + compound I), compound II alone"}}, "data": [{"smiles": "N#Cc1nn(-c2c(Cl)cc(C(F)(F)F)cc2Cl)c(N)c1[S+]([O-])C(F)(F)F", "note": "(centres unmarked) [Fipronil, fipronil]", "values": [{"measurement": "Average Control %", "setting": "[1]; [5]", "result": 25, "unit": "%"}]}, {"smiles": "CNC(=O)c1cc(Cl)cc(C)c1NC(=O)c1cc(Br)nn1-c1ncccc1Cl", "note": "[Rynaxypyr]", "values": [{"measurement": "Average Control %", "setting": "[2]; [6]", "result": 0, "unit": "%"}]}, {"smiles": "O=[N+]([O-])NC1=NCCN1Cc1ccc(Cl)nc1", "note": "[Imidacloprid, imidacloprid]", "values": [{"measurement": "Average Control %", "setting": "[3]; [7]", "result": 0, "unit": "%"}, {"measurement": "Average Control %", "setting": "[4]; [5]", "result": 25, "unit": "%"}]}, {"smiles": "CN1COCN(Cc2cnc(Cl)s2)/C1=N\\[N+](=O)[O-]", "note": "[Thiamethoxam, thiamethoxam]", "values": [{"measurement": "Average Control %", "setting": "[2]; [6]", "result": 0, "unit": "%"}]}, {"smiles": "CC(c1ccc(Cl)nc1)S(C)(=O)=NC#N", "note": "(centres unmarked) [Compound C.I.2]", "values": [{"measurement": "Average Control %", "setting": "[3]; 0 + 10 ppm (compound II + compound I), compound I alone", "result": 0, "unit": "%"}, {"measurement": "Average Control %", "setting": "[3]; [8]", "result": 0, "unit": "%"}, {"measurement": "Average Control %", "setting": "[1]; [9]", "result": 0, "unit": "%"}]}, {"smiles": "CCOC(=O)OC1=C(c2cc(C)ccc2C)C(=O)N[C@]12CC[C@@H](OC)CC2", "note": "[Spirotetramat, spirotetramat]", "values": [{"measurement": "Average Control %", "setting": "[2]; [7]", "result": 0, "unit": "%"}, {"measurement": "Average Control %", "setting": "[1]; 100 + 0 ppm (compound II + compound I), compound II alone", "result": 50, "unit": "%"}]}, {"smiles": "CC(C)(C)c1ccc(CSc2cnn(C(C)(C)C)c(=O)c2Cl)cc1", "note": "[Pyridaben, pyridaben]", "values": [{"measurement": "Average Control %", "setting": "[3]; [10]", "result": 50, "unit": "%"}, {"measurement": "Average Control %", "setting": "[1]; [10]", "result": 50, "unit": "%"}]}, {"smiles": "CC1(C)C(C=C(Cl)Cl)C1C(=O)OC(C#N)c1cccc(Oc2ccccc2)c1", "note": "(stereo not drawn) [Alphacypermethrin, alpha-cypermethrin]", "values": [{"measurement": "Average Control %", "setting": "[3]; [11]", "result": 0, "unit": "%"}, {"measurement": "Average Control %", "setting": "[1]; [5]", "result": 0, "unit": "%"}]}, {"smiles": "CS(=O)(Cc1ccc(Cl)nc1)=NC#N", "note": "(centres unmarked) [Compound C.I.1]", "values": [{"measurement": "Average Control %", "setting": "[3]; 0 + 4 ppm (compound II + compound I), compound I alone", "result": 0, "unit": "%"}, {"measurement": "Average Control %", "setting": "[3]; [8]", "result": 0, "unit": "%"}, {"measurement": "Average Control %", "setting": "[4]; [8]", "result": 0, "unit": "%"}, {"measurement": "Average Control %", "setting": "[2]; [8]", "result": 50, "unit": "%"}, {"measurement": "Average Control %", "setting": "[1]; [9]", "result": 0, "unit": "%"}]}, {"smiles": "CNC(=O)c1cc(C#N)cc(C)c1NC(=O)c1cc(Br)nn1-c1ncccc1Cl", "note": "[Compound II.A^13.1]", "values": [{"measurement": "Average Control %", "setting": "[3]; [11]", "result": 0, "unit": "%"}]}]}
